Experimental findings from patent publication US6599882B1, “Secretin and secretin pharmaceuticals for treating lactose intolerance” (priority 1999, dated 2003) are described below.

In the assay the test system is lactose intolerant individuals.

Ends that are not written are not given here.

For the substance “secretin (HSDGTFTSELSRLRDSARLQRLLQGLV; ends and bridges not checked; UniProt P63298 33-59, looked up)”, the “time after infusion until some slight symptoms of lactose intolerance started again” value (one severely lactose intolerant individual, one-time infusion) is given as “about 3 months”. In addition, the “symptoms of lactose intolerance after consuming dairy and other lactose containing products” value (one-time intravenous infusion, 1 CU per kilogram of body weight over about 1 to 4 minutes, prolonged period of time after treatment, listed as secretion) is on record as “without experiencing any of the symptoms of lactose intolerance”.
